Reference: patent US12201696B2, “Multiplexed analysis of materials for tissue delivery” (Georgia Tech Research Corporation, priority 2017, dated 2025)

Tested on: HEK293 cells stably transduced with a CMV-lox-GFP-stop-lox-RFP construct
Experiment: Endocytosis inhibition in LGSL-RFP HEK cells
Type: cell-based
Details: for effect on in vitro endocytosis and functional Cre mRNA delivery of ATL1 and ATL2: LGSL-RFP cells
Protocol: For experiments shown in FIG. 1, cells were incubated with endocytosis inhibitors 1 hour prior to incubation with pooled LNPs against clathrin-mediated endocytosis (chlorpromazine, 100 μM, Alfa Aesar), caveolae-mediated endocytosis (genistein, 100 μM, TCI America), and macropinocytosis (5-(N-Ethyl-N-isopropyl) Amiloride, EIPA, 50 μM, Toronto Research Chemicals).
To determine whether FIND could simultaneously measure delivery mediated by many nanoparticles, 54 chemically distinct LNPs were formulated (Table 5, FIGS. 4J-4O); each carried Cre mRNA and a unique DNA barcode. The LNPs were administered to HEK cells in a 6 well plate using an mRNA dose of 10, 100, or 1000 ng/well, and a mRNA: DNA barcode mass ratio of 10:1. A dose-dependent increase in RFP^+ cells was observed, with over 80% of the cells RFP^+ at 1000 ng 72 hours after transfection (FIG. 1G). Barcodes were deep sequenced at all 3 doses, reasoning that LNPs which delivered barcodes at the lowest dose (4% RFP^+ cells) would also deliver LNPs at the middle dose (20% RFP^+ cells). There was a strong relationship between normalized delivery at these 2 doses (FIG. 1H). Cells treated with 1000 ng mRNA were also sequenced. As expected, the relationship between 1000 ng and either 10 or 100 ng weakened, since at this dose, nearly all the cells (>80% were RFP^+), leading to system saturation (FIG. 4P-4Q). Finally, it was evaluated whether the number of RFP^+ cells decreased when cells were pre-treated with Chlorpromazine, Genistein, or Ethylisopropyl amiloride (EIPA), which inhibit clathrin-, caveolin-, and macropinocytosis-mediated endocytosis, respectively. Compared to cells that were not treated with inhibitors, the number of RFP^+ cells decreased by 40-60%, recapitulating previous LNP results (Sahay, Querbes et al. 2013, Dahlman, Barnes et al. 2014, Wittrup, Ai et al. 2015) (FIG. 1I).
Like all high throughput screens, LNPs identified by FIND need to be validated. ATL1 and ATL2 (FIG. 3A, 3B-3E) were selected. […] (FIG. 6C-6F).

Compound	effect on in vitro endocytosis and functional Cre mRNA delivery of ATL1 and ATL2	inhibition at 100 µM (Homo sapiens, HEK293, pre-treatment 1 hour before pooled 54 LNPs (100 ng total mRNA), chlorpromazine 100 μM, genistein 100 μM, EIPA 50 μM, read-out: decrease in number of RFP+ cells compared to cells not treated with inhibitors) [%]
CCN(c1nc(N)c(C(=O)N=C(N)N)nc1Cl)C(C)C [EIPA, 5-(N-Ethyl-N-isopropyl) Amiloride]	only impacted LNP uptake	–
CN(C)CCCN1c2ccccc2Sc2ccc(Cl)cc21 [Chlorpromazine, chlorpromazine]	inhibited	40 to 60
O=c1c(-c2ccc(O)cc2)coc2cc(O)cc(O)c12 [Genistein, genistein]	inhibited	–
